Results taken from article PMC9863562, “Design, Synthesis, and Biological Evaluation of 2-Mercaptobenzoxazole Derivatives as Potential Multi-Kinase Inhibitors” (Pharmaceuticals, 2023).

Tests used:
[1] = tested on: HepG2 cells (hepatocellular carcinoma); test: MTT cytotoxicity assay, HepG2; type: cell-based; conditions: Homo sapiens, HepG2, 24 h, 24 h treatment, read-out: In Vitro Cytotoxicity IC50 HepG2
Text: (§1) The in vitro cytotoxicity for the final target compounds, 4(a–d), 5(a–f), and 6(a–b), was preliminarily evaluated via the MTT colorimetric assay against a panel of four human cell lines, namely, the hepatocellular carcinoma (HepG2), mammary gland (MCF-7), breast cancer (MDA-MB-231) and epithelioid cervix carcinoma (HeLa).
(§2) The cytotoxicity of the target hybrids was examined by an MTT assay against HepG2, HeLa, MCF-7, and MDA-MB-231. At first, the RPMI-1640 medium with 10% fetal bovine serum was used to cultivate the cell lines. Then, antibiotics (penicillin (100 units/mL) and streptomycin (100 µg/mL)) were added in a 37 °C incubator in 5% CO2. The cell lines were seeded in a 96-well plate at a density of 1.0 × 10^4 cells/well at 37 °C under 5% CO2 for 48 h. After incubation, the cells were treated with various concentrations of the synthesized compounds and incubated for an additional 24 h. Following the drug treatment, 20 µL of 5 mg/mL MTT solution was added and incubated for 4 h. To dissolve the purple formazan that had formed, 100 µL dimethyl sulfoxide (DMSO) was added to each well. At a wavelength of 570 nm, the colorimetric assay was recorded and measured, using a plate reader BioTek EXL 800 (Agilent Technologies, Inc., Santa Clara, CA, USA). The percentage of relative cell viability was counted using the following formula (A570 of handled specimens/A570 of the unhandled specimen), multiplied by 100. The results of the cytotoxicity value were presented as the median growth inhibitory concentration (IC50) of the reagents compared to the control.

[2] = tested on: MCF-7 cells (mammary gland cancer); test: MTT cytotoxicity assay, MCF-7; type: cell-based; conditions: Homo sapiens, MCF7, 24 h treatment, read-out: In Vitro Cytotoxicity IC50 MCF-7
Description: (§3) After incubation, the cells were treated with various concentrations of the synthesized compounds and incubated for an additional 24 h. Following the drug treatment, 20 µL of 5 mg/mL MTT solution was added and incubated for 4 h. To dissolve the purple formazan that had formed, 100 µL dimethyl sulfoxide (DMSO) was added to each well. […] The percentage of relative cell viability was counted using the following formula (A570 of handled specimens/A570 of the unhandled specimen), multiplied by 100.

[3] = tested on: MDA-MB-231 cells (breast cancer); test: MTT cytotoxicity assay, MDA-MB-231; type: cell-based; conditions: Homo sapiens, 24 h treatment, read-out: In Vitro Cytotoxicity IC50 MDA-MB-231
Description: as §3

[4] = tested on: HeLa cells (epithelioid cervix carcinoma); test: MTT cytotoxicity assay, HeLa; type: cell-based; conditions: Homo sapiens, 24 h treatment, read-out: In Vitro Cytotoxicity IC50 Hela
Description: as §3

[5] = tested on: HepG2, MCF-7, MDA-MB-231 and HeLa cell lines; test: MTT cytotoxicity assay, panel of four cell lines; type: cell-based; conditions: Homo sapiens, range over HepG2, MCF-7, MDA-MB-231, HeLa, read-out: IC50 values, range over the tested cell lines
Text: as §1, §2

Row | Structure (SMILES) | IC50 [1] | IC50 [2] | IC50 [3] | IC50 [4] | melting point | IC50 [5]
1 | O=C(CSc1nc2ccccc2o1)NN=Cc1ccc(Cl)c(Cl)c1 (mixture of isomers) [Compound 4a, (E/Z)-N′-(3,4-dichlorobenzylidene)-2-(benzo[d]oxazol-2-ylthio)acetohydrazide] | 81.2 ± 3.7 µM | 74.2 ± 3.5 µM | 75.5 ± 3.6 µM | 67.6 ± 3.4 µM | 193 to 195 °C | –
2 | O=C(CSc1nc2ccccc2o1)NN=Cc1ccc(OC(F)(F)F)cc1 (mixture of isomers) [Compound 4b, (E/Z)-N′-(4-(trifluoromethoxy)benzylidene)-2-(benzo[d]oxazol-2-ylthio)acetohydrazide] | 13.1 ± 1.1 µM | 15.2 ± 1.2 µM | 9.72 ± 0.7 µM | 19.3 ± 1.6 µM | 154 to 156 °C | –
3 | N#Cc1ccc(C=NNC(=O)CSc2nc3ccccc3o2)cc1 (mixture of isomers) [Compound 4c, (E/Z)-N′-(4-cyanobenzylidene)-2-(benzo[d]oxazol-2-ylthio)acetohydrazide] | 34.5 ± 2.2 µM | 38.6 ± 2.5 µM | 21.1 ± 1.6 µM | 35.2 ± 2.5 µM | 246 to 248 °C | –
4 | COc1cc(C=NNC(=O)CSc2nc3ccccc3o2)ccc1O (mixture of isomers) [Compound 4d, (E/Z)-N′-(4-hydroxy-3-methoxybenzylidene)-2-(benzo[d]oxazol-2-ylthio)acetohydrazide] | 9.37 ± 0.7 µM | 11.1 ± 0.9 µM | 4.93 ± 0.2 µM | 12.9 ± 0.9 µM | 150 to 153 °C | 2.14 to 12.9 µM
5 | O=C(CSc1nc2ccccc2o1)NN=Cc1cccs1 (mixture of isomers) [Compound 6a, (E/Z)-2-(benzo[d]oxazol-2-ylthio)-N′-((thiophen-2-yl)methylene)acetohydrazide] | 26.4 ± 1.8 µM | 42.9 ± 2.8 µM | 30.8 ± 2.2 µM | 46.4 ± 2.7 µM | 218 to 221 °C | –
6 | O=C(CSc1nc2ccccc2o1)NN=C1C(=O)Nc2ccccc21 [Compound 5a, (E/Z)-2-(benzo[d]oxazol-2-ylthio)-N′-(2-oxoindolin-3-ylidene)acetohydrazide] | 18 ± 1.3 µM | 23.5 ± 1.8 µM | 14.6 ± 1.2 µM | 28.9 ± 2 µM | 223 to 225 °C | –
7 | Cc1ccc2c(c1)C(=NNC(=O)CSc1nc3ccccc3o1)C(=O)N2 [Compound 5b, (E/Z)-2-(benzo[d]oxazol-2-ylthio)-N′-(5-methyl-2-oxoindolin-3-ylidene)acetohydrazide] | 41.7 ± 2.4 µM | 27.4 ± 2 µM | 36.2 ± 2.4 µM | 31.5 ± 2.3 µM | 230 to 233 °C | –
8 | O=C(CSc1nc2ccccc2o1)NN=C1C(=O)Nc2ccc([N+](=O)[O-])cc21 [Compound 5c, (E/Z)-2-(benzo[d]oxazol-2-ylthio)-N′-(5-nitro-2-oxoindolin-3-ylidene)acetohydrazide] | 56.2 ± 2.9 µM | 48.3 ± 2.8 µM | 62.4 ± 3.1 µM | 50.6 ± 2.9 µM | 165 to 167 °C | –
9 | COc1ccc2c(c1)C(=NNC(=O)CSc1nc3ccccc3o1)C(=O)N2 [Compound 5d, (E/Z)-2-(benzo[d]oxazol-2-ylthio)-N′-(5-methoxy-2-oxoindolin-3-ylidene)acetohydrazide] | 10.5 ± 0.9 µM | 7.58 ± 0.6 µM | 8.44 ± 0.6 µM | 6.27 ± 0.7 µM | 145 to 147 °C | 2.14 to 12.9 µM
10 | O=C(CSc1nc2ccccc2o1)NN=C1C(=O)Nc2ccc(Cl)cc21 [Compound 5e, (E/Z)-2-(benzo[d]oxazol-2-ylthio)-N′-(5-chloro-2-oxoindolin-3-ylidene)acetohydrazide] | 45.2 ± 2.7 µM | 53 ± 3.1 µM | 51.5 ± 2.8 µM | 58.4 ± 3.2 µM | 264 to 267 °C | –
11 | O=C(CSc1nc2ccccc2o1)NN=C1C(=O)Nc2ccc(F)cc21 [Compound 5f, (E/Z)-2-(benzo[d]oxazol-2-ylthio)-N′-(5-fluoro-2-oxoindolin-3-ylidene)acetohydrazide] | 63.7 ± 3.2 µM | 70.3 ± 3.3 µM | 68.1 ± 3.5 µM | 59.2 ± 3.1 µM | 225 to 227 °C | –
